Measurements reported in PubChem BioAssay AID1963445 (Molecular Pharmacology Branch, DTP, NCI, 2024).
“And” between values parts separate entries of the source, which are not always exact repeats. Equal values may be shown once.

System: MCF7 complex spheroid growth, % test/control
Test: Anticancer human tumor MCF7 cell line growth inhibition [Asc];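 further: spheroids exposed to compounds for 7 days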;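 on viability, T/C: 100% = DMSO vehicle control wells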
Settings: for viability, T/C: stronger effect = lower value
Outline: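 Spheroid model: tumor line + HUVEC + hMSC. Single agents and combinations; top conc. at/near clinical Cmax (10 microM if undetermined), half-log dilutions. DMSO stocks at 800-fold test concentration.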

In the case of `Cc1nc(N2CCC3(CC2)COC(C)C3N)c(CO)nc1Sc1ccnc(N)c1Cl` (stereo unspecified) + CCN1C(C(=O)NC23CCC(C(=O)O)(CC2)CC3)C(c2cccc(Cl)c2F)C2(C(=O)Nc3cc(Cl)ccc32)C12CCCCC2, the IC50 (curve of first compound, second compound 0.00949 µM) is reported as 1.38 µM, the IC50 (curve of first compound, second compound 0.03 µM) is reported as 0.493 µM and the IC50 (curve of first compound, second compound 0.0949 µM) is reported as < 0.00949 µM. For the same compound, the IC50 (curve of first compound, second compound 0.3 µM) was < 0.00949 µM, the IC50 (curve of first compound, second compound 0.949 µM) was < 0.00949 µM and the IC50 (curve of first compound, second compound 3 µM) was < 0.00949 µM. It also gave a viability, T/C (second compound 0.00949 µM, first compound 0.00949 µM) of 109%, a viability, T/C (second compound 0.00949 µM, first compound 0.03 µM) of 115% and a viability, T/C (second compound 0.00949 µM, first compound 0.0949 µM) of 94.4%. The viability, T/C (second compound 0.00949 µM, first compound 0.3 µM) was 99.9%, the viability, T/C (second compound 0.00949 µM, first compound 0.949 µM) was 66.8% and the viability, T/C (second compound 0.00949 µM, first compound 3 µM) was 12.5%. For the same compound, the viability, T/C (second compound 0.03 µM, first compound 0.00949 µM) was 86.4%, the viability, T/C (second compound 0.03 µM, first compound 0.03 µM) was 79.1% and the viability, T/C (second compound 0.03 µM, first compound 0.0949 µM) was 88.5%. The viability, T/C (second compound 0.03 µM, first compound 0.3 µM) was 77.3%, the viability, T/C (second compound 0.03 µM, first compound 0.949 µM) was 14% and the viability, T/C (second compound 0.03 µM, first compound 3 µM) was 11.1%. For the same compound, the viability, T/C (second compound 0.0949 µM, first compound 0.00949 µM) was 50.3%, the viability, T/C (second compound 0.0949 µM, first compound 0.03 µM) was 41.9% and the viability, T/C (second compound 0.0949 µM, first compound 0.0949 µM) was 43.7%. The viability, T/C (second compound 0.0949 µM, first compound 0.3 µM) was 29.9%, the viability, T/C (second compound 0.0949 µM, first compound 0.949 µM) was 9.42% and the viability, T/C (second compound 0.0949 µM, first compound 3 µM) was 10.3%. It also gave a viability, T/C (second compound 0.3 µM, first compound 0.00949 µM) of 26%, a viability, T/C (second compound 0.3 µM, first compound 0.03 µM) of 22.8% and a viability, T/C (second compound 0.3 µM, first compound 0.0949 µM) of 20.8%. The viability, T/C (second compound 0.3 µM, first compound 0.3 µM) was 18.5%, the viability, T/C (second compound 0.3 µM, first compound 0.949 µM) was 5.2% and the viability, T/C (second compound 0.3 µM, first compound 3 µM) was 7.09%. For the same compound, the viability, T/C (second compound 0.949 µM, first compound 0.00949 µM) was 13.7%, the viability, T/C (second compound 0.949 µM, first compound 0.03 µM) was 13.6% and the viability, T/C (second compound 0.949 µM, first compound 0.0949 µM) was 12.8%. It also gave a viability, T/C (second compound 0.949 µM, first compound 0.3 µM) of 6.58%, a viability, T/C (second compound 0.949 µM, first compound 0.949 µM) of 5.44% and a viability, T/C (second compound 0.949 µM, first compound 3 µM) of 5.91%. It also gave a viability, T/C (second compound 3 µM, first compound 0.00949 µM) of 11.4%, a viability, T/C (second compound 3 µM, first compound 0.03 µM) of 8.37% and a viability, T/C (second compound 3 µM, first compound 0.0949 µM) of 10.1%. For the same compound, the viability, T/C (second compound 3 µM, first compound 0.3 µM) was 6.66%, the viability, T/C (second compound 3 µM, first compound 0.949 µM) was 6.63% and the viability, T/C (second compound 3 µM, first compound 3 µM) was 11.7%.

With `O=C(c1ccc(F)c(F)c1Nc1ccc(I)cc1F)N1CC(O)([C@@H]2CCCCN2)C1` the viability, T/C (compound 0.00316 µM) was 104% and 101% and 102%, the viability, T/C (compound 0.01 µM) was 92.1% and 89.8% and 79.8% and the viability, T/C (compound 0.0316 µM) was 100% and 92.2% and 90.3%. For the same compound, the viability, T/C (compound 0.1 µM) was 99% and 111% and 102%, the viability, T/C (compound 0.316 µM) was 91.3% and 97.2% and 97.5% and the viability, T/C (compound 1 µM) was 86.5% and 89.6% and 87.4%. The IC50 (curve of compound) was > 1 µM.

In the case of `O=C(c1ccc(F)c(F)c1Nc1ccc(I)cc1F)N1CC(O)([C@@H]2CCCCN2)C1` + Cc1c(S(C)(=O)=O)c(-c2cc(F)cc(N3CCN(c4ccc(NS(=O)(=O)c5ccc(NC(CCN6CCC(C(=O)OCCCP(=O)(O)O)CC6)CSc6ccccc6)c(S(=O)(=O)C(F)(F)F)c5)cc4)CC3)c2)c(-c2ccc(Cl)cc2)n1C(C)C, the IC50 (curve of first compound, second compound 0.0316 µM) is reported as > 1 µM, the IC50 (curve of first compound, second compound 0.1 µM) is reported as > 1 µM and the IC50 (curve of first compound, second compound 0.316 µM) is reported as > 1 µM. For the same compound, the IC50 (curve of first compound, second compound 1 µM) was > 1 µM, the IC50 (curve of first compound, second compound 3.16 µM) was > 1 µM and the IC50 (curve of first compound, second compound 10 µM) was > 1 µM. For the same compound, the viability, T/C (second compound 0.0316 µM, first compound 0.00316 µM) was 101%, the viability, T/C (second compound 0.0316 µM, first compound 0.01 µM) was 97.2% and the viability, T/C (second compound 0.0316 µM, first compound 0.0316 µM) was 88.6%. The viability, T/C (second compound 0.0316 µM, first compound 0.1 µM) was 83.2%, the viability, T/C (second compound 0.0316 µM, first compound 0.316 µM) was 95.2% and the viability, T/C (second compound 0.0316 µM, first compound 1 µM) was 112%. For the same compound, the viability, T/C (second compound 0.1 µM, first compound 0.00316 µM) was 101%, the viability, T/C (second compound 0.1 µM, first compound 0.01 µM) was 89.7% and the viability, T/C (second compound 0.1 µM, first compound 0.0316 µM) was 93.6%. It also gave a viability, T/C (second compound 0.1 µM, first compound 0.1 µM) of 88.8%, a viability, T/C (second compound 0.1 µM, first compound 0.316 µM) of 94.8% and a viability, T/C (second compound 0.1 µM, first compound 1 µM) of 90%. For the same compound, the viability, T/C (second compound 0.316 µM, first compound 0.00316 µM) was 90.7%, the viability, T/C (second compound 0.316 µM, first compound 0.01 µM) was 88.2% and the viability, T/C (second compound 0.316 µM, first compound 0.0316 µM) was 81%. For the same compound, the viability, T/C (second compound 0.316 µM, first compound 0.1 µM) was 93.1%, the viability, T/C (second compound 0.316 µM, first compound 0.316 µM) was 96.4% and the viability, T/C (second compound 0.316 µM, first compound 1 µM) was 84.2%. It also gave a viability, T/C (second compound 1 µM, first compound 0.00316 µM) of 84.8%, a viability, T/C (second compound 1 µM, first compound 0.01 µM) of 78% and a viability, T/C (second compound 1 µM, first compound 0.0316 µM) of 82.9%. The viability, T/C (second compound 1 µM, first compound 0.1 µM) was 94.5%, the viability, T/C (second compound 1 µM, first compound 0.316 µM) was 109% and the viability, T/C (second compound 1 µM, first compound 1 µM) was 74.3%. It also gave a viability, T/C (second compound 3.16 µM, first compound 0.00316 µM) of 80.9%, a viability, T/C (second compound 3.16 µM, first compound 0.01 µM) of 86.5% and a viability, T/C (second compound 3.16 µM, first compound 0.0316 µM) of 80.1%. It also gave a viability, T/C (second compound 3.16 µM, first compound 0.1 µM) of 98.5%, a viability, T/C (second compound 3.16 µM, first compound 0.316 µM) of 82.6% and a viability, T/C (second compound 3.16 µM, first compound 1 µM) of 81.8%. The viability, T/C (second compound 10 µM, first compound 0.00316 µM) was 159%, the viability, T/C (second compound 10 µM, first compound 0.01 µM) was 164% and the viability, T/C (second compound 10 µM, first compound 0.0316 µM) was 204%. The viability, T/C (second compound 10 µM, first compound 0.1 µM) was 182%, the viability, T/C (second compound 10 µM, first compound 0.316 µM) was 114% and the viability, T/C (second compound 10 µM, first compound 1 µM) was 90.8%.
